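In this assay, cells in 96-well plates receive the compound at five concentrations for 48 hours. Endpoints are linearly interpolated between the surrounding concentrations. GI50 = concentration required for 50% inhibition of growth.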 Activity calls are given as the source filed them. Rule as the data show it: active = GI50 up to about 1.1 µM and inactive = higher.

Data on ten compounds can be found in ChEMBL document CHEMBL1201862, “PubChem BioAssay data set” (2004).

Common to all, as to assay: growth of human tumour cells (NCI), 48 h
The test system of assay [1] is BT-549.
Assay [2] concerns KM12.
In assay [3] the test system is NCI/ADR-RES.
In assay [4] the test system is HOP-62.
Assay [5] deals with HT-29.
Assay [6] relates to RPMI-8226.
For assay [7], the system named is MOLT-4.
In assay [8] the test system is SK-MEL-5.
In assay [9] the test system is NCI-H226.
Assay [10] relates to SF-295.
Assay [11] deals with MDA-MB-435.
For assay [12], the system named is SK-OV-3.
Assay [13] deals with COLO 205.
Assay [14] concerns UACC-62.
The test system of assay [15] is OVCAR-4.
For assay [16], the system named is T47D.
For assay [17], the system named is IGROV-1.
The test system of assay [18] is MCF7.
The test system of assay [19] is SN12C.

Turning to `O=S(=O)(N=S(c1ccc(Cl)cc1)c1ccc(Cl)cc1)c1ccccc1`, the GI50 is > 100 µM (inactive) in assay [1]; 96.6 µM (inactive) in assay [2]; 63 µM (inactive) in assay [3]; > 100 µM (inactive) in assay [4]; 88.7 µM (inactive) in assay [5]; 40.4 µM (inactive) in [6]. Besides, the GI50 is 33.8 µM (inactive) in assay [7]; 71 µM (inactive) in [8]; > 100 µM (inactive) in assay [9]; 68.5 µM (inactive) in assay [10]; 37.9 µM (inactive) in assay [11]; > 100 µM (inactive) in assay [12]. Also, the GI50 in [13] is > 100 µM (inactive); in assay [14], 60.3 µM (inactive); in assay [15] it was 58.5 µM (inactive); in [16], 47.5 µM (inactive); in [17], > 100 µM (inactive); in [18], 50.9 µM (inactive). For the same compound, the GI50 in assay [19] was 9.95 µM (inactive).

Take `S=C(Nc1cc(Cl)c(Cl)cc1Cl)SCc1ccccc1`: the GI50 in assay [1] was 26.2 µM (inactive); in assay [2] it was 19.8 µM (inactive); in assay [3] it was 24.9 µM (inactive); in [4] it was 26 µM (inactive); in assay [5], 20.8 µM (inactive); in assay [6] it was 21 µM (inactive). Besides, the GI50 in assay [7] is 22.8 µM (inactive); in [8] it was 20.7 µM (inactive); in assay [9], 18.5 µM (inactive); in assay [10] it was 19.4 µM (inactive); in assay [11] it was 19.8 µM (inactive); in assay [12], 56 µM (inactive). Moreover, the GI50 was 34.9 µM (inactive) in [13]; 66.5 µM (inactive) in [14]; 22.2 µM (inactive) in assay [15]; 32.3 µM (inactive) in assay [16]; 33.9 µM (inactive) in [17]; 38.5 µM (inactive) in [18]. In assay [19], the GI50 is > 100 µM (inactive).

For `CC(C)(C)NC(=O)[C@H]1CC[C@H]2[C@@H]3CC=C4NC(=O)CC[C@]4(C)[C@H]3CC[C@]12C`, the GI50 in assay [1] was > 100 µM (inactive); in assay [2], > 100 µM (inactive); in [3], 64.9 µM (inactive); in [4], > 100 µM (inactive); in [5], > 100 µM (inactive); in [6], > 100 µM (inactive). Also, the GI50 in assay [7], in assay [8], in assay [9], in assay [10], in assay [11] and in [12] was > 100 µM (inactive) in each case. The GI50 was > 100 µM (inactive) in assay [13]; > 100 µM (inactive) in assay [14]; 50.1 µM (inactive) in assay [15]; > 100 µM (inactive) in assay [16]; > 100 µM (inactive) in [17]; 32.4 µM (inactive) in assay [18]. The GI50 in assay [19] was > 100 µM (inactive).

For `CCCCC(C(=O)N/N=C/c1ccc([N+](=O)[O-])o1)C(=O)N/N=C/c1ccc([N+](=O)[O-])o1`, the GI50 is 5.61 µM (inactive) in [1]; 3.66 µM (inactive) in [2]; 2.64 µM (inactive) in assay [3]; 13.1 µM (inactive) in assay [4]; 2.14 µM (inactive) in assay [5]; 0.682 µM (active) in assay [6]. Moreover, the GI50 is 2.09 µM (inactive) in assay [7]; 3.37 µM (inactive) in [8]; 2.37 µM (inactive) in assay [9]; 15.7 µM (inactive) in assay [10]; 5.7 µM (inactive) in assay [11]; 21.1 µM (inactive) in assay [12]. The GI50 was 4.28 µM (inactive) in [13]; 2.91 µM (inactive) in [14]; 1.74 µM (inactive) in assay [15]; 3.46 µM (inactive) in assay [16]; 2.17 µM (inactive) in assay [17]; 4.51 µM (inactive) in assay [18]. Further, the GI50 in [19] was 3.66 µM (inactive).

With `CCOc1cc(NC(C)=O)ccc1C(=O)NNS(=O)(=O)c1ccc(NC(C)=O)cc1`, the GI50 in assay [1] was > 100 µM (inactive); in [2], 41.5 µM (inactive); in assay [3], 69.8 µM (inactive); in assay [4] it was 63.5 µM (inactive); in assay [5], 47.8 µM (inactive); in [6], 31.7 µM (inactive). In addition, the GI50 is 37.2 µM (inactive) in assay [7]; 22.3 µM (inactive) in [8]; 25.2 µM (inactive) in assay [9]; 39.4 µM (inactive) in assay [10]; 27.9 µM (inactive) in assay [11]; 50.9 µM (inactive) in [12]. The GI50 in assay [13] is 24.7 µM (inactive); in [14], 57.3 µM (inactive); in [15], 73.6 µM (inactive); in assay [16], > 100 µM (inactive); in assay [17], 43.9 µM (inactive); in assay [18], 40.6 µM (inactive). For the same compound, in assay [19], the GI50 is 46.5 µM (inactive).

Consider `C#CCn1c(=O)ccn(/C(=C/C(=O)OCC)C(=O)OCC)c1=O`, for which the GI50 in assay [1] was 10.5 µM (inactive); in assay [2], 17.4 µM (inactive); in assay [3], 3.7 µM (inactive); in assay [4], 13 µM (inactive); in [5], 2.17 µM (inactive); in [6], 2.9 µM (inactive). In addition, the GI50 in assay [7] was 3.43 µM (inactive); in [8], 14.5 µM (inactive); in [9] it was 18.6 µM (inactive); in assay [10], 24.6 µM (inactive); in assay [11], 10.9 µM (inactive); in assay [12], 35.2 µM (inactive). Moreover, the GI50 is 1.81 µM (inactive) in assay [13]; 14 µM (inactive) in assay [14]; 4.62 µM (inactive) in [15]; 2.67 µM (inactive) in assay [16]; 4.21 µM (inactive) in assay [17]; 3.18 µM (inactive) in assay [18]. Further, the GI50 in assay [19] was 9.08 µM (inactive).

With `CN(C)CCNC(=O)c1cccc2c(NC(CCCNC(=N)N)C(=O)O)c3ccccc3[n+](C)c12` (stereo not given), the GI50 was > 100 µM (inactive) in [1]; > 100 µM (inactive) in assay [2]; 27.7 µM (inactive) in [3]; 68.1 µM (inactive) in assay [4]; > 100 µM (inactive) in [5]; > 100 µM (inactive) in assay [6]. Also, the GI50 in [7] is 47.8 µM (inactive); in assay [8], 40.1 µM (inactive); in [9] it was 39.5 µM (inactive); in assay [10] it was > 100 µM (inactive); in assay [11], > 100 µM (inactive); in assay [12], > 100 µM (inactive). Moreover, the GI50 was 38.9 µM (inactive) in [13]; > 100 µM (inactive) in assay [14]; > 100 µM (inactive) in assay [15]; 80.9 µM (inactive) in assay [16]; 59 µM (inactive) in assay [17]; 45.4 µM (inactive) in [18]. The GI50 in assay [19] is 32.4 µM (inactive).

Regarding `CC[C@@H](/C=C\CCC1(C[C@H](O)CCC=C(C)C)OCCO1)O[Si](C(C)C)(C(C)C)C(C)C`, the GI50 in [1] was 30.5 µM (inactive); in assay [2] it was 37.1 µM (inactive); in assay [3], 22.4 µM (inactive); in [4], 34.3 µM (inactive); in assay [5] it was 25 µM (inactive); in assay [6], 18.4 µM (inactive). The GI50 in assay [7] was 19.3 µM (inactive); in assay [8], 17.8 µM (inactive); in assay [9], 19.6 µM (inactive); in assay [10], 20.2 µM (inactive); in assay [11], 35 µM (inactive); in assay [12] it was 21.8 µM (inactive). In addition, the GI50 in assay [13] is 19.8 µM (inactive); in assay [14] it was 22.6 µM (inactive); in [15], 50.8 µM (inactive); in assay [16], 19.1 µM (inactive); in assay [17] it was 20.9 µM (inactive); in assay [18], 17.3 µM (inactive). Besides, the GI50 in assay [19] is 18 µM (inactive).

Take `N#Cc1nc(C(CO)N(Cc2ccccc2)C(=O)O)oc1N` (stereo not given): the GI50 in [1], in assay [2], in [3], in assay [4], in assay [5] and in assay [6] was > 100 µM (inactive) in each case. Further, the GI50 in assay [7], in assay [8], in assay [9], in assay [10], in assay [11] and in assay [12] was > 100 µM (inactive) each time. In addition, the GI50 in assay [13], in assay [14], in assay [15], in [16], in [17] and in assay [18] was > 100 µM (inactive) each time. Besides, the GI50 in assay [19] was > 100 µM (inactive).

For `Nc1c2c(nc3ccccc13)-c1ccccc1NCCC2`, the GI50 in assay [1] was 50.5 µM (inactive); in assay [2], 35.2 µM (inactive); in assay [3] it was 68.2 µM (inactive); in assay [4], 16.6 µM (inactive); in assay [5], 23 µM (inactive); in assay [6] it was 20.2 µM (inactive). Further, the GI50 in [7] was 24.6 µM (inactive); in assay [8] it was 15.1 µM (inactive); in assay [9] it was 25.4 µM (inactive); in assay [10], 17.7 µM (inactive); in assay [11] it was 22 µM (inactive); in [12], 64.6 µM (inactive). The GI50 is 16.8 µM (inactive) in assay [13]; 18.3 µM (inactive) in [14]; 47.3 µM (inactive) in [15]; 26.1 µM (inactive) in [16]; 33.3 µM (inactive) in [17]; 34.2 µM (inactive) in [18]. The GI50 in assay [19] is 33.3 µM (inactive).
